How the values were obtained:
[1] = biological target: T1, KRAS G12D and SOS1 proteins (Homo sapiens, UniProt Q07889); test: KRAS-G12D/SOS1 binding assay (HTRF); conditions: Tag1-SOS1 / Tag2-KRAS G12D, 10 μM GTP
T1 construct: purchased Cisbio 63ADK000CB17PEG
T1 sequence (Q07889 1-1333): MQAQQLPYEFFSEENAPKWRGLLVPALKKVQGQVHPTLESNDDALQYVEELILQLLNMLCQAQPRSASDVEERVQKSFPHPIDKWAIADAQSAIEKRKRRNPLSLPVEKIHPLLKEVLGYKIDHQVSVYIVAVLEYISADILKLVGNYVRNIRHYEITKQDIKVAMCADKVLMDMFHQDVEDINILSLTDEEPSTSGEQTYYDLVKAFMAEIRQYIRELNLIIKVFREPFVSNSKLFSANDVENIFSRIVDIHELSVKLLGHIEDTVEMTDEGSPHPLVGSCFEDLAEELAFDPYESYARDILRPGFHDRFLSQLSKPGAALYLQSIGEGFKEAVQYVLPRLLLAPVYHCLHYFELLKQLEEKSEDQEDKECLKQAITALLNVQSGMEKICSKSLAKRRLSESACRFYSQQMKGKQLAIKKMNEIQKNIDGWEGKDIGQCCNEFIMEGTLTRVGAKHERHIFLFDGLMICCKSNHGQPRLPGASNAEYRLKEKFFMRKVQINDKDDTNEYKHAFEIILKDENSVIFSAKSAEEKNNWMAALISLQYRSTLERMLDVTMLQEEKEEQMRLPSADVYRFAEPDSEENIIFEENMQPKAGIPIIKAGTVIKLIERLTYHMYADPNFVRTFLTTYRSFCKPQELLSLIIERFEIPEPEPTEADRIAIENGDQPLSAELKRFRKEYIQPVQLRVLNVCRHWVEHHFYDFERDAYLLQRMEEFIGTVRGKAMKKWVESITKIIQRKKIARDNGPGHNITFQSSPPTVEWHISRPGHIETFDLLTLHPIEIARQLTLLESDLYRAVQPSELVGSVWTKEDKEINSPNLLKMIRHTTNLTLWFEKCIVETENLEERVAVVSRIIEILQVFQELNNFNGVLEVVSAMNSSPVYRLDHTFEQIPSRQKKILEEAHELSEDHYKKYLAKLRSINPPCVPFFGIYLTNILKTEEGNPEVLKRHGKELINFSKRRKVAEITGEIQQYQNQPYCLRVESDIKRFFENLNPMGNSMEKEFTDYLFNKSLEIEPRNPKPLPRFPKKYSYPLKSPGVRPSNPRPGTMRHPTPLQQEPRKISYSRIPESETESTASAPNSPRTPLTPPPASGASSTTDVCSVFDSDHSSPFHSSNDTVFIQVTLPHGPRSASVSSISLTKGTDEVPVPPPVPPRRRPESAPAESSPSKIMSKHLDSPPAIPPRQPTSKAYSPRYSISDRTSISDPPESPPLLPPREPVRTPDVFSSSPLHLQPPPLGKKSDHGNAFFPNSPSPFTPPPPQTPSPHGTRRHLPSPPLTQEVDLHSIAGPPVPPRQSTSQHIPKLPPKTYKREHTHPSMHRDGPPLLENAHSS
Procedure: (§1) KRAS-WT (or G12C/G12D/G12V)/SOS1 Binding Assay
(§2) Low IC50 values are indicative of high potency of the SOS1 inhibitor compounds in this assay setting.
(§3) The KRAS-WT (or G12C/G12D/G12V)/SOS1 binding assay is performed using an assay kit (Cisbio, Cat #63ADK000CB15PEG or 63ADK000CB16PEG/63ADK000CB17PEG/63ADK000CB18PEG) according to the procedure recommended by the manufacturer. • 1) Thaw and prepare the working solution of Tag1-SOS1 protein and Tag2-KRAS-WT (or G12C/G12D/G12V) protein with final concentration of 10 μM GTP (Sigma, Cat #V900868). • 2) Thaw and prepare the working solution of anti-Tag1-Tb^3+ anti-Tag2-XL665. • 3) Dispense 2 μL of serially diluted compound, 4 μL of Tag1-SOS1 protein and 4 μL of Tag2-KRAS-WT (or G12C/G12D/G12V) protein with GTP into a ProxiPlate-384 Plus, white 384-shallow well microplate (PerkinElmer, Cat #6008280). • 4) Incubate the plate for 15 minutes at room temperature. • 5) Dispense 10 μL of pre-mixed anti-Tag1-Tb^3+ and anti-Tag2-XL665 into the plate. • 6) Seal the plate and incubate for 2 hours at room temperature. • 7) Remove the plate sealer and read on PHERAstar FS (BMG LABTECH, PHERAstar FS). • 8) Calculate the ratio of the acceptor and donor emission signals for each individual well using the following equation.
(§4) [formula] • 9) IC50 values are fitted and calculated by HTRF signal values and log of compound concentrations to nonlinear regression [Log (inhibitor) vs. Response−Variable Slope (four parameters)] using the GraphPad Prism 8.0.

[2] = biological target: T2, KRAS-WT and SOS1 proteins (Homo sapiens, UniProt Q07889); test: KRAS-WT/SOS1 binding assay (HTRF); conditions: Tag1-SOS1 / Tag2-KRAS-WT, 10 μM GTP, read-out: Activity Data in Kras: SOS1 Assay, Wild Type
T2 construct: purchased Cisbio 63ADK000CB15PEG
T2 sequence (Q07889 1-1333): T1 sequence (Q07889 1-1333)
Procedure: as §1, §2, §3, §4

SMILES	IC50 [1]	IC50 [2]
CC(=O)N1CCC(n2cc3c(N[C@H](C)c4cccc(C(F)(F)CO)c4)nc4ccnn4c3cc2=O)CC1 [Example 75, 11-(1-acetylpiperidin-4-yl)-8-{[(1R)-1-[3-(1,1-difluoro-2-hydroxyethyl)phenyl]ethyl]amino}-2,3,7,11-tetraazatricyclo[7.4.0.0^{2,6}]trideca-1(13),3,5,7,9-pentaen-12-one]	< 100 nM	< 100 nM
COc1cc2c(cc1O[C@H]1CCOC1)c(N[C@H](C)c1cccc(C(F)(F)F)c1)nc1ccnn12 [Example 54, 8-methoxy-7-[(3 S)-oxolan-3-yloxy]-N-[(1R)-1-[3-(trifluoromethyl)phenyl]ethyl]pyrazolo[1,5-α]quinazolin-5-amine]	500 to 5000 nM	500 to 5000 nM
Cc1nc(N[C@H](C)c2cccc(C(F)(F)F)c2)c2cc(OC3CCOC3)c3c(cnn3C)c2n1 (stereo partly drawn) [Example 35, 2,7-dimethyl-6-(oxolan-3-yloxy)-N-[(1R)-1-[3-(trifluoromethyl)phenyl]ethyl]-7H-pyrazolo[3,4-h]quinazolin-4-amine]	100 to 500 nM	100 to 500 nM
C[C@@H](Nc1nc2ccnn2c2cc(=O)n(C3CCN(C)CC3)cc12)c1cccc(C(F)(F)CO)c1 [Example 76, (R)-5-((1-(3-(1,1-difluoro-2-hydroxyethyl)phenyl)ethyl)amino)-7-(1-methylpiperidin-4-yl)pyrazolo[1,5-a]pyrido[3,4-e]pyrimidin-8(7H)-one]	< 100 nM	< 100 nM
Cc1nc(N[C@H](C)c2cccc(C(F)(F)CO)c2)c2cc(O[C@H]3CCOC3)c3nncn3c2n1 [Example 20, 2,2-difluoro-2-(3-((R)-1-((2-methyl-6-(((S)-tetrahydrofuran-3-yl)oxy)-[1,2,4]triazolo[4′,3′:1,6]pyrido[2,3-d]pyrimidin-4-yl)amino)ethyl)phenyl)ethan-1-ol]	100 to 500 nM	< 100 nM
Cc1nc(N[C@H](C)c2cccc(C(F)(F)CO)c2)c2cc(O[C@H]3CCN(C)C3)c3nncn3c2n1 [Example 22, 2,2-difluoro-2-(3-((R)-1-((2-methyl-6-(((S)-1-methylpyrrolidin-3-yl)oxy)-[1,2,4]triazolo[4′,3′:1,6]pyrido[2,3-d]pyrimidin-4-yl)amino)ethyl)phenyl)ethan-1-ol]	< 100 nM	< 100 nM
COCC(=O)N1CCC(c2cc3c(N[C@H](C)c4cccc5c4CCC5(F)F)nc(C)nc3n3cnnc23)CC1 [Example 10, (R)-1-(4-(4-((1-(1,1-difluoro-2,3-dihydro-1H-inden-4-yl)ethyl)amino)-2-methyl-[1,2,4]triazolo[4′,3′:1,6]pyrido[2,3-d]pyrimidin-6-yl)piperidin-1-yl)-2-methoxyethan-1-one]	< 100 nM	< 100 nM
COc1cc2c(cc1O[C@H]1CCOC1)c(N[C@H](C)c1cccc(C(F)(F)F)c1)nc1nccn12 [Example 58, 8-methoxy-7-(((S)-tetrahydrofuran-3-yl)oxy)-N—((R)-1-(3-(trifluoromethyl)phenyl)ethyl)imidazo[1,2-a]quinazolin-5-amine]	< 100 nM	< 100 nM
CC(=O)N1CC[C@H](Oc2cc3c(N[C@H](C)c4cccc5c4CCC5(F)F)nc(C)nc3n3cnnc23)C1 [Example 21, 1-((S)-3-((4-(((R)-1-(1,1-difluoro-2,3-dihydro-1H-inden-4-yl)ethyl)amino)-2-methyl-[1,2,4]triazolo[4′,3′:1,6]pyrido[2,3-d]pyrimidin-6-yl)oxy)pyrrolidin-1-yl)ethan-1-one]	< 100 nM	< 100 nM
Cc1nc(N[C@H](C)c2cccc(C(F)(F)CO)c2)c2cc(-c3ccc(=O)n(C)c3)c3c(cnn3C)c2n1 [Example 24, (R)-5-(4-((1-(3-(1,1-difluoro-2-hydroxyethyl)phenyl)ethyl)amino)-2,7-dimethyl-7H-pyrazolo[3,4-h]quinazolin-6-yl)-1-methylpyridin-2(1H)-one]	< 100 nM	< 100 nM
Cc1nc(N[C@H](C)c2cccc(C(F)(F)CO)c2)c2cc(N3CC[C@@H](O)C3)c3c(cnn3C)c2n1 [Example 44, (3R)-1-(4-{[(1R)-1-[3-(1,1-difluoro-2-hydroxyethyl)phenyl]ethyl]amino}-2,7-dimethyl-7H-pyrazolo[3,4-h]quinazolin-6-yl)pyrrolidin-3-ol]	< 100 nM	< 100 nM
Cc1nc(N[C@H](C)c2cccc(C(F)(F)CO)c2)c2cc(O[C@H]3CCOC3)c3c(cnn3C)c2n1 [Example 38, 2-(3-((R)-1-((2,7-dimethyl-6-(((S)-tetrahydrofuran-3-yl)oxy)-7H-pyrazolo[3,4-h]quinazolin-4-yl)amino)ethyl)phenyl)-2,2-difluoroethan-1-ol]	< 100 nM	< 100 nM
C[C@@H](Nc1nc2ccnn2c2cc(=O)n(C3(C(F)F)CC3)cc12)c1cccc(C(F)(F)CO)c1 [Example 68, (R)-5-((1-(3-(1,1-difluoro-2-hydroxyethyl)phenyl)ethyl)amino)-7-(1-(difluoromethyl)cyclopropyl)pyrazolo[1,5-a]pyrido[3,4-e]pyrimidin-8(7H)-one]	< 100 nM	< 100 nM
C[C@@H](Nc1nc2ccnn2c2cc(=O)n(C3CCNCC3)cc12)c1cccc(C(F)(F)CO)c1 [Example 77, 8-{[(1R)-1-[3-(1,1-difluoro-2-hydroxyethyl)phenyl]ethyl]amino}-11-(piperidin-4-yl)-2,3,7,11-tetraazatricyclo[7.4.0.0^{2,6}]trideca-1(13),3,5,7,9-pentaen-12-one]	< 100 nM	< 100 nM
C[C@@H](Nc1nc2ccnn2c2cc(=O)n(C3(C)CC3)cc12)c1cccc(C(F)(F)F)n1 [Example 65, (R)-7-(1-methylcyclopropyl)-5-((1-(6-(trifluoromethyl)pyridin-2-yl)ethyl)amino)pyrazolo[1,5-a]pyrido[3,4-e]pyrimidin-8(7H)-one]	500 to 5000 nM	500 to 5000 nM
COCC(=O)N1CCC(c2cc3c(N[C@H](C)c4cccc(C(F)(F)CO)c4)nc(C)nc3n3cnnc23)CC1 [Example 11, (R)-1-(4-(4-((1-(3-(1,1-difluoro-2-hydroxyethyl)phenyl)ethyl)amino)-2-methyl-[1,2,4]triazolo[4′,3′:1,6]pyrido[2,3-d]pyrimidin-6-yl)piperidin-1-yl)-2-methoxyethan-1-one]	< 100 nM	< 100 nM
C[C@@H](Nc1nc2ccnn2c2cc(=O)n([C@H]3CCOC3)cc12)c1cccc(C(F)(F)F)c1 [Example 69, 7-((S)-tetrahydrofuran-3-yl)-5-(((R)-1-(3-(trifluoromethyl)phenyl)ethyl)amino)pyrazolo[1,5-a]pyrido[3,4-e]pyrimidin-8(7H)-one]	100 to 500 nM	100 to 500 nM

From US20240109891A1, “NOVEL SUBSTITUTED TRICYCLIC AZA-HETEROCYCLES AS SOS1 INHIBITORS” (Viva Star Biosciences (Suzhou) Co., Ltd., priority 2021, published 2024)
